The text below walks through data of patent US5147868A, “Thienamycin renal peptidase inhibitors” (Merck & Co., Inc., priority 1992, dated 1992).

Test [1] deals with T1, dipeptidase (E.C.3.4.13.11), pig renal enzyme (Sus scrofa, UniProt P22412).
T1 construct: solubilized preparation of dipeptidase isolated from hog kidneys; from tissue; host or cells: hog kidney
T1 sequence (P22412 17-409): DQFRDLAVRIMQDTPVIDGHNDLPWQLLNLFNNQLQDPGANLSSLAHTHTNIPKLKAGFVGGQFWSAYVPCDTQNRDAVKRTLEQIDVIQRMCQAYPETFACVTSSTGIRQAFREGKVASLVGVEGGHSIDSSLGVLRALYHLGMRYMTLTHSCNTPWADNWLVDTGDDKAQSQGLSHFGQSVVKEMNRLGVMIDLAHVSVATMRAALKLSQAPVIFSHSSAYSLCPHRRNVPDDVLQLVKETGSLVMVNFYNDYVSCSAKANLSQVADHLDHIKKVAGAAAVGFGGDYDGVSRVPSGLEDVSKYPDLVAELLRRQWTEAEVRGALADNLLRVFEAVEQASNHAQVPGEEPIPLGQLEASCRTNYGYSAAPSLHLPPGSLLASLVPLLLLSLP
The experiment in a line: in vitro inhibition of hydrolysis of glycyldehydrophenylalanine (GDP) by solubilized renal dipeptidase. In kind it is biochemical, pig (hog kidneys). The procedure: This measured the ability of compounds to inhibit hydrolysis of glycyldehydrophenylalanine (GDP) by a solubilized preparation of dipeptidase isolated from hog kidneys. The procedure is as follows: to a 1 ml. system containing 50 mM "MOPS" (3-(N-morpholino)propanesulfonic acid) buffer, pH 7.1, is added 5 μg of lyophilized enzyme, and the test compound at a final concentration of 0.1 mM. After a five minute incubation at 37° C., GDP is added to a final concentration of 0.05 mM. Incubation is continued for 10 minutes, at 37° C. and hydrolysis of GDP is measured by the change in optical density with time at 275 nm. Inhibition of the enzyme is gauged by comparison to a standard run containing no inhibitor and is expressed as the inhibitor binding constant, Ki.
A 1 ml. system of 50 mM "MOPS" buffer, pH 7.1, is used. To this is added 5 μg of the pig renal enzyme and an amount of the test compound to bring its final concentration to 0.1 mM. After a five minute incubation at 37° C., an amount of GDP is added to bring its final concentration to 0.05 mM. The system is again incubated for 10 minutes, at 37° C. Hydrolysis of GDP is measured by its change in optical density with time at 275 nm. Inhibition of the enzyme is gauged by comparison to a standard run containing no inhibitor and is presented as percent inhibition.

For the next test, the target named is T2, renal dipeptidase (Sus scrofa, UniProt P22412).
T2 construct: disulfide-linked homodimer
T2 sequence (P22412 17-384): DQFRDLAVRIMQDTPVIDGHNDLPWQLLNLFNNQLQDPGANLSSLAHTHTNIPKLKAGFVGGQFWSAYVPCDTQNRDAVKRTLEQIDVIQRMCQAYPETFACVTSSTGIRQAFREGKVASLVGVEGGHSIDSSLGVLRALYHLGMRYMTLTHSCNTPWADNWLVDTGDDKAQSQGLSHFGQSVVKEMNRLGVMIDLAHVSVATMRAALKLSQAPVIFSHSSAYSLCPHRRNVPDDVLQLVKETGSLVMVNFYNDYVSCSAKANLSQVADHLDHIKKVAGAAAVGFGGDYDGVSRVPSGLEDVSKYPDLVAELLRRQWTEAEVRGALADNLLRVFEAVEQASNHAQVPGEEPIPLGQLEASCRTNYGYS
Description: affinity and hydrolysis of substrates by renal dipeptidase. The test is classed as biochemical, pig (hog kidneys). Conditions: compared with thienamycin.

Turning to `CC1(C)CC1C(=O)N/C(=C\CCCC(=O)O)C(=O)O` (racemic) [Compound 64], the inhibitory constant (Ki) in test [1] (pH 7.1, 37° C., concentration giving 50% inhibition, calculated from multiple assays, GDP substrate) was 48 nM.

Regarding `NCC(=O)NC(=Cc1ccccc1)C(=O)O` [GDP, glycyldehydrophenylalanine], on renal dipeptidase, the “maximal velocity of hydrolysis by renal dipeptidase” value is given as “much higher maximal velocity of hydrolysis”.

Take `CCCCC/C=C(\NC(=O)[C@H]1CC1(C)C)C(=O)O` [dextrorotatory isomer, (+) Z-2-(2,2-dimethylcyclopropanecarboxamido)-2-octenoic acid]: in test [1] (resolved racemic octenoic acid, test not specified), the “activity of resolved isomers” value was “The activity resides in the dextrorotatory isomer”.
